Assay results: patent US4032525A, “Dibenz[b,f]oxepin derivatives” (Hoffmann-La Roche Inc., priority 1974, dated 1977)

Legend:
homovanillic acid = experiment: Determination of Homovanillic Acid (HVA) in rat brain; assay type: in vivo, rats; conditions: po, 2 h, read-out: Increase in HVA; for response vs control in vivo at 50 mg/kg: dose 50 mg/kg p.o.
rats [1] = experiment: "Pole Climbing" Test (conditioned / unconditioned reaction); assay type: in vivo; conditions: for Quotient ED10 (blocking of the unconditioned reaction)/ED50 (blocking of the conditioned reaction) / ED50: rats, p.o.; for Quotient ED10 (blocking of the unconditioned reaction)/ED50 (blocking of the conditioned reaction): larger quotient = greater selectivity of neuroleptic activity; for ED50: Rattus norvegicus, po, read-out: ED50 (blocking of the conditioned reaction)
Description: II. "Pole Climbing" Test This test provides information about behavior reactions of rats. Rats are trained to avoid, by climbing up a vertical pole in the test chamber, an electrical impulse-- unconditioned impulse-- released via the […] floor some seconds after an acoustic signal-- conditioned impulse. The blocking of the conditioned reaction is designated by the parameter ED50 (mg/kg. p.o.) and the blocking of the unconditioned reaction is designated by the parameter ED10 (mg/kg. p.o.). The parameter ED50 --blocking of the conditioned reaction-- provides a measure of the strength of the neuroleptic activity of the derivative under investigation.

Catalepsy Test = assay type: in vivo, rats; conditions: rat, in vivo, ip; rats, intraperitoneally; observed every 30 minutes for 6 hours; read-out: ED50 (dose at which 50% of the animals show catalepsy)
Experimental: (§1) A cataleptic activity-- "wax rigidity", i.e., abnormally long retention of a fixed body position--in central depressant or neuroleptically active compounds is considered to be an undesirable side-effect and is produced by motor disorders. Representative dibenz[b,f]oxepin derivatives provided by this invention were administered intraperitoneally to rats. The animals are considered to be cataleptic when the homolateral extremities remain in a crossed position for at least 10 seconds. The number of cataleptic animals is noted every 30 minutes for 6 hours. The ED50 is the dose at which 50% of the animals show catalepsy.

in vivo = conditions: mouse, po
rats [2] = experiment: Catalepsy Test; assay type: in vivo; conditions: in words, relative to chlorpromazine
Experimental: as §1

[3] = rats killed two hours after dosing, untreated rats fixed at 100%
[4] = in words, relative to chlorpromazine

| Compound | Quotient ED10 (blocking of the unconditioned reaction)/ED50 (blocking of the conditioned reaction) (rats [1]) | ED50 at 6 h (Catalepsy Test) [mg/kg] | LD50 at 24 h (in vivo) [mg/kg] | response vs control in vivo at 50 mg/kg (homovanillic acid; [3]) [%] | ED50 (rats [1]) [mg/kg] | cataleptic side-effect compared with chlorpromazine (rats [2]) | other results |
| --- | --- | --- | --- | --- | --- | --- | --- |
| CN(C)CCCN1c2ccccc2Sc2ccc(Cl)cc21 [Chlorpromazine, reference compound] | 2.5 | 6 |  |  |  |  | response vs control in vivo at 20 mg/kg (homovanillic acid): 320% |
| OCCCN1CCN(C2Cc3cc(Cl)ccc3Oc3ccccc32)CC1 (stereo not drawn) [B] |  |  | 375 |  |  |  | response vs control in vivo at 3.5 mg/kg (homovanillic acid; dose 3.5 mg/kg p.o., rats killed two hours after dosing, untreated rats fixed at 100%): 260% |
| Cc1ccc2c(c1)CC(N1CCN(CCN3CCOC3=O)CC1)c1cc(F)ccc1O2 (stereo not drawn) [F] | 5.1 | 30 | 450 | 265 | 7 | about one half to about one eighth of the undesired cataleptic side-effect of chlorpromazine |  |
| O=C1OCCN1CCN1CCN(C2Cc3cc(Cl)ccc3Oc3ccccc32)CC1 (stereo not drawn) [G] | 3.5 | 50 | 450 | 225 | 15.5 | about one half to about one eighth of the undesired cataleptic side-effect of chlorpromazine | neuroleptic strength of action compared with chlorpromazine (rats [1]; [4]): somewhat lower than that of chlorpromazine |
| Cc1ccc2c(c1)CC(N1CCN(CCN3CCOC3=O)CC1)c1cc(C)ccc1O2 (stereo not drawn) [D] | 5.6 | 14 | 750 |  | 7.6 | about one half to about one eighth of the undesired cataleptic side-effect of chlorpromazine | response vs control in vivo at 15 mg/kg (homovanillic acid; dose 15 mg/kg p.o., rats killed two hours after dosing, untreated rats fixed at 100%): 335% |
| N#CCCN1CCN(C2Cc3cc(Cl)ccc3Oc3ccccc32)CC1 (stereo not drawn) [H] | > 21 | > 30 | 1500 | 275 | 14 | less than one fifth of the undesired cataleptic side-effect of chlorpromazine | neuroleptic strength of action compared with chlorpromazine (rats [1]; [4]): somewhat lower than that of chlorpromazine; quality (selectivity) of the neuroleptic activity compared with chlorpromazine (rats [1]; [4]): this superiority is particularly evident |
| O=C1OCCN1CCN1CCN(C2Cc3cc(Cl)ccc3Oc3ccc(Cl)cc32)CC1 (stereo not drawn) [C] |  |  | 900 |  |  |  | response vs control in vivo at 5 mg/kg (homovanillic acid; dose 5 mg/kg p.o., rats killed two hours after dosing, untreated rats fixed at 100%): 365% |
| Cc1ccc2c(c1)CC(N1CCN(C)CC1)c1cc(C)ccc1O2 (stereo not drawn) [A] | 3.1 |  | 900 |  | 3.2 |  | response vs control in vivo at 2 mg/kg (homovanillic acid; dose 2 mg/kg p.o., rats killed two hours after dosing, untreated rats fixed at 100%): 235% |
| O=C1OCCN1CCN1CCN(C2Cc3cc(Cl)ccc3Oc3ccc(F)cc32)CC1 (stereo not drawn) [E] | 2.8 |  | 900 |  | 3.5 |  | response vs control in vivo at 10 mg/kg (homovanillic acid; dose 10 mg/kg p.o., rats killed two hours after dosing, untreated rats fixed at 100%): 260% |
